Measured values taken from patent publication US20230220021A1, “CYCLIC PEPTIDE INHIBITORS OF PSD-95 AND USES THEREOF” (University of Copenhagen, priority 2020, published 2023).
Blank lines part the entries; values can stand above or below the compound they belong to. Where a SMILES comes first, the peptide text is derived from it. [ ]: non-standard residue; d: D form.

Assays:
PSD-95-PDZ2 [1] = target: T1, PSD-95-PDZ2 (Homo sapiens, UniProt P78352); assay: Fluorescence polarization (FP) competition assay against cyclic nNOS TAMRA probe; type: binding; conditions: for Ki: FP competition, cyclic nNOS TAMRA probe, mean of triplicates, N.B. = not binding, read-out: Ki; for Relative Ki (Ki mut/Ki WT): FP inhibition constant normalized to WT value
T1 construct: 7xHis (N); made in house; host or cells: Escherichia coli B21 pLys (for the mutants, 'as previously described')

PSD-95-PDZ2 [2] = target: T2, PSD-95-PDZ2 (Homo sapiens, UniProt P78352, V178C); assay: SPOT peptide array screening with TAMRA labelled PSD-95-PDZ2; type: binding; conditions: SPOT array, TAMRA labelled PSD-95-PDZ2-V178C, normalized to WT
T2 construct: screened with the TAMRA labelled PSD-95-PDZ2-V178C domain; 7xHis (N); made in house
Protocol: SPOT peptide array synthesis. To generate the cyclic nNOSβ-hairpin arrays, we used the Intavis MultiPep spotter (Intavis Bioanalytical instruments). The membranes employed in this assay were SynthoPlan APEG CE (standard amino-modified acid stable sellulose membrane with a PEG-spacer), 10×15 cm with a loading of 400 nmol cm^−2. Solutions of 0.3 M Fmoc-AA-OH and 0.3 M Oxyma Pure were prepared in N-methyl-2-pyrrolidone (NMP). The activator solution consisted of 0.3 M DIC and 0.3 M of 2,4,6-trimethylpyridine (Collidine) in NMP. The capping solution consisted of a solution of 1 M acetic anhydride and 0.05 M of 4-dimethylaminopyridine (DMAP) in NMP. The deprotection solution consisted of 20% piperidine in NMP. AA couplings were performed 1 h,4 times. Deprotection of the Fmoc groups was performed 15min,2 times. Membrane washing between couplings or deprotections was performed with NMP and ethanol. Elongation of peptides in cellulose membrane was started by coupling first the Fmoc-PEG(9)-OH (Iris Biotech) and the subsequent mixture of Fmoc-Gly-OH (25%) and Boc-Gly-OH (75%) to lower the total loading of the membrane. Afterwards, the resin was capped with the capping solution and extensively washed and soaked in bromophenol blue (BPB) as a quality control to reveal the SPOTS with a functional amino group. Then, we coupled the quasi-orthogonal group Fmoc-Glu-PP, and carried out the rest of the synthesis until peptide completion. The cellulose bound linear peptides were finally treated with a solution of 95% DCM, 3% TIPS and 2% TFA 3 times, 20 min. to remove the quasi-orthogonal group. Afterwards, the membrane was washed 5 times with DCM and neutralized with 5% DIPEA in DCM. The membrane was then washed 5 more times with DCM, 5 times with NMP and cyclized with 0.3M PyAOP and 0.3M of DIPEA in DMF for 3 h or overnight. Finally, the membrane was dried with DCM and the side-chain protecting groups were cleaved with the standard deprotection cocktail (95% TFA, 2.5% H2O and 2.5% TIPS) or with reagent K [TFA 82.5%, phenol 5%, H2O 5%, thioanisole 5% and 1,2-ethanedithiol (EDT) 2.5%] for 3 h.
SPOT membrane screening. Membranes were incubated with PBS pH 7.2+0.5% bovine serum albumin (BSA) for 1 h. After the incubation period, the membrane was dried and scanned with an Amershan Typhoon scanner, at 400V, Cy3 wavelength (532 nm). A TIF file of the screening and a file with the blank values were generated using the Image Quant software. Afterwards, a solution of 50 nM of TAMRA labelled PSD-95-PDZ2 domain was prepared in PBS pH 7.2+0.5% BSA and was added to the membrane. The membrane was left incubating in a Polymax 1040 rocking table for 1 h protected from the light. Passed the incubation time, the excess of labelled protein was removed by washing the membrane 3 times with PBS+0.5% BSA. Finally, the membrane fluorescence values were measured with the Amershan Typhoon scanner at 400V, Cy3 wavelength (532 nm). Using the Image Quant software, the TIF image of the screening and a file with the fluorescence values of the peptides with the TAMRA labelled PSD-95-PDZ2 were generated. The blank was then subtracted from the fluorescence values of the peptides screened against the TAMRA labelled PSD-95-PDZ2.
A deep mutational scan was performed on the WT scaffold, exchanging each AA to the remaining 19 L-AAs. Each array contained three copies of the individual peptides as technical replicates. Additionally, three controls were included in the design: the cyclic nNOS β-hairpin WT control (positive control), a linear nNOS peptide (cyclization control) and a cyclic nNOS β-hairpin with a F111V substitution (negative control previously tested in FP competition assays). For array screening, a mutation in PSD-95-PDZ2 residue V178 (PSD-95-PDZ2-V178C) was introduced, which was subsequently labelled with TAMRA maleimide. […]

SMILES: CC[C@H](C)[C@@H]1NC(=O)[C@H]([C@@H](C)O)NC(=O)[C@H](CCCCN)NC(=O)[C@@H]2CCCN2C(=O)[C@H]([C@@H](C)O)NC(=O)CNC(=O)[C@H](CC(=O)O)NC(=O)CNC(=O)[C@H]([C@@H](C)O)NC(=O)[C@H](C(C)C)NC(=O)[C@H]([C@@H](C)O)NC(=O)[C@H]([C@@H](C)O)NC(=O)[C@H](CCC(=O)O)NC(=O)[C@H](CC(C)C)NC(=O)[C@H](Cc2c[nH]cn2)NC(=O)[C@H]([C@@H](C)O)NC(=O)[C@H](CCC(N)=O)NC(=O)CNC(=O)[C@H]2CCCN2C(=O)[C@H](CCC(N)=O)NC(=O)[C@H]([C@@H](C)O)NC(=O)[C@H](C(C)C)NC(=O)[C@H](CCCNC(=N)N)NC1=O [compound 21] (cyclo(THLETTVTGDGTPKTIRVTQ[dP]GQ))
Relative Ki (Ki mut/Ki WT) (PSD-95-PDZ2 [1]): 51.60
Normalized SPOT fluorescence (Mut/WT) (PSD-95-PDZ2 [2]): 0.05

SMILES: CC[C@H](C)[C@@H]1NC(=O)[C@H]([C@@H](C)O)NC(=O)[C@H](CCCCN)NC(=O)[C@@H]2CCCN2C(=O)[C@H]([C@@H](C)O)NC(=O)[C@@H]2CCCN2C(=O)[C@H](CC(=O)O)NC(=O)CNC(=O)[C@H]([C@@H](C)O)NC(=O)[C@H](Cc2ccccc2)NC(=O)[C@H]([C@@H](C)O)NC(=O)[C@H]([C@@H](C)O)NC(=O)[C@H](CCC(=O)O)NC(=O)[C@H](CC(C)C)NC(=O)[C@H](Cc2c[nH]cn2)NC(=O)[C@H]([C@@H](C)O)NC(=O)[C@H](CCC(N)=O)NC(=O)CNC(=O)[C@H]2CCCN2C(=O)[C@H](CCC(N)=O)NC(=O)[C@H]([C@@H](C)O)NC(=O)[C@H](C(C)C)NC(=O)[C@H](CCCNC(=N)N)NC1=O [compound 30] (cyclo(THLETTFTGDPTPKTIRVTQ[dP]GQ))
Ki (PSD-95-PDZ2 [1]): 420 nM
Relative Ki (Ki mut/Ki WT) (PSD-95-PDZ2 [1]): 0.28
Normalized SPOT fluorescence (Mut/WT) (PSD-95-PDZ2 [2]): 2.33

SMILES: CC[C@H](C)[C@@H]1NC(=O)[C@H]([C@@H](C)O)NC(=O)[C@H](CCCCN)NC(=O)[C@@H]2CCCN2C(=O)[C@H](CCC(=O)O)NC(=O)CNC(=O)[C@H](CC(=O)O)NC(=O)CNC(=O)[C@H]([C@@H](C)O)NC(=O)[C@H](Cc2ccccc2)NC(=O)[C@H]([C@@H](C)O)NC(=O)[C@H]([C@@H](C)O)NC(=O)[C@H](CCC(=O)O)NC(=O)[C@H](CC(C)C)NC(=O)[C@H](Cc2c[nH]cn2)NC(=O)[C@H]([C@@H](C)O)NC(=O)[C@H](CCC(N)=O)NC(=O)CNC(=O)[C@H]2CCCN2C(=O)[C@H](CCC(N)=O)NC(=O)[C@H]([C@@H](C)O)NC(=O)[C@H](C(C)C)NC(=O)[C@H](CCCNC(=N)N)NC1=O [compound 33] (cyclo(THLETTFTGDGEPKTIRVTQ[dP]GQ))
Ki (PSD-95-PDZ2 [1]): 420 nM
Relative Ki (Ki mut/Ki WT) (PSD-95-PDZ2 [1]): 0.28
Normalized SPOT fluorescence (Mut/WT) (PSD-95-PDZ2 [2]): 1.37

SMILES: CC[C@H](C)[C@@H]1NC(=O)[C@H]([C@@H](C)O)NC(=O)[C@H](CCCCN)NC(=O)[C@@H]2CCCN2C(=O)[C@H]([C@@H](C)O)NC(=O)CNC(=O)[C@H](CC(=O)O)NC(=O)CNC(=O)[C@H]([C@@H](C)O)NC(=O)[C@H](Cc2ccccc2)NC(=O)[C@H]([C@@H](C)O)NC(=O)[C@H]([C@@H](C)O)NC(=O)[C@H](CCC(=O)O)NC(=O)[C@H](CC(C)C)NC(=O)[C@H](Cc2c[nH]cn2)NC(=O)[C@H]([C@@H](C)O)NC(=O)[C@H](CCC(N)=O)NC(=O)CNC(=O)[C@H]2CCCN2C(=O)[C@H](CCCNC(=N)N)NC(=O)[C@H](CCCNC(=N)N)NC(=O)[C@H](C(C)C)NC(=O)[C@H](CCCNC(=N)N)NC1=O [compound 45] (cyclo(THLETTFTGDGTPKTIRVRR[dP]GQ))
Relative Ki (Ki mut/Ki WT) (PSD-95-PDZ2 [1]): 1.31
Normalized SPOT fluorescence (Mut/WT) (PSD-95-PDZ2 [2]): 3.50

Second part, the compound after the results:

Ki (PSD-95-PDZ2 [1]): 1980 nM
Relative Ki (Ki mut/Ki WT) (PSD-95-PDZ2 [1]): 1.32
Normalized SPOT fluorescence (Mut/WT) (PSD-95-PDZ2 [2]): 1.49
SMILES: CC[C@H](C)[C@@H]1NC(=O)[C@H]([C@@H](C)O)NC(=O)[C@H](CCCCN)NC(=O)[C@@H]2CCCN2C(=O)[C@H]([C@@H](C)O)NC(=O)CNC(=O)[C@H](CC(=O)O)NC(=O)CNC(=O)[C@H](Cc2c[nH]cn2)NC(=O)[C@H](Cc2ccccc2)NC(=O)[C@H]([C@@H](C)O)NC(=O)[C@H]([C@@H](C)O)NC(=O)[C@H](CCC(=O)O)NC(=O)[C@H](CC(C)C)NC(=O)[C@H](Cc2c[nH]cn2)NC(=O)[C@H]([C@@H](C)O)NC(=O)[C@H](CCC(N)=O)NC(=O)CNC(=O)[C@H]2CCCN2C(=O)[C@H](CCC(N)=O)NC(=O)[C@H]([C@@H](C)O)NC(=O)[C@H](C(C)C)NC(=O)[C@H](CCCNC(=N)N)NC1=O [compound 20] (cyclo(THLETTFHGDGTPKTIRVTQ[dP]GQ))

Ki (PSD-95-PDZ2 [1]): 1470 nM
Relative Ki (Ki mut/Ki WT) (PSD-95-PDZ2 [1]): 0.98
Normalized SPOT fluorescence (Mut/WT) (PSD-95-PDZ2 [2]): 1.32
SMILES: CC[C@H](C)[C@@H]1NC(=O)[C@H]([C@@H](C)O)NC(=O)[C@H](CCCCN)NC(=O)[C@@H]2CCCN2C(=O)[C@H]([C@@H](C)O)NC(=O)CNC(=O)[C@H](CC(=O)O)NC(=O)CNC(=O)[C@H]([C@@H](C)O)NC(=O)[C@H](Cc2ccccc2)NC(=O)[C@H]([C@@H](C)O)NC(=O)[C@H]([C@@H](C)O)NC(=O)[C@H](CCC(=O)O)NC(=O)[C@H](CC(C)C)NC(=O)[C@H](Cc2c[nH]cn2)NC(=O)[C@H](Cc2ccc(O)cc2)NC(=O)[C@H](CCC(N)=O)NC(=O)CNC(=O)[C@H]2CCCN2C(=O)[C@H](CCC(N)=O)NC(=O)[C@H]([C@@H](C)O)NC(=O)[C@H](C(C)C)NC(=O)[C@H](CCCNC(=N)N)NC1=O [compound 24] (cyclo(YHLETTFTGDGTPKTIRVTQ[dP]GQ))

Ki (PSD-95-PDZ2 [1]): 480 nM
Relative Ki (Ki mut/Ki WT) (PSD-95-PDZ2 [1]): 0.32
Normalized SPOT fluorescence (Mut/WT) (PSD-95-PDZ2 [2]): 1.85
SMILES: CC[C@H](C)[C@@H]1NC(=O)[C@H]([C@@H](C)O)NC(=O)[C@H](CCCCN)NC(=O)[C@@H]2CCCN2C(=O)[C@H](CC(=O)O)NC(=O)CNC(=O)[C@H](CC(=O)O)NC(=O)CNC(=O)[C@H]([C@@H](C)O)NC(=O)[C@H](Cc2ccccc2)NC(=O)[C@H]([C@@H](C)O)NC(=O)[C@H]([C@@H](C)O)NC(=O)[C@H](CCC(=O)O)NC(=O)[C@H](CC(C)C)NC(=O)[C@H](Cc2c[nH]cn2)NC(=O)[C@H]([C@@H](C)O)NC(=O)[C@H](CCC(N)=O)NC(=O)CNC(=O)[C@H]2CCCN2C(=O)[C@H](CCC(N)=O)NC(=O)[C@H]([C@@H](C)O)NC(=O)[C@H](C(C)C)NC(=O)[C@H](CCCNC(=N)N)NC1=O [compound 32] (cyclo(THLETTFTGDGDPKTIRVTQ[dP]GQ))

Relative Ki (Ki mut/Ki WT) (PSD-95-PDZ2 [1]): 2.51
Normalized SPOT fluorescence (Mut/WT) (PSD-95-PDZ2 [2]): 2.00
SMILES: CC[C@H](C)[C@@H]1NC(=O)[C@H]([C@@H](C)O)NC(=O)[C@H](CCCCN)NC(=O)[C@@H]2CCCN2C(=O)[C@H]([C@@H](C)O)NC(=O)CNC(=O)[C@H](CC(=O)O)NC(=O)CNC(=O)[C@H](CCSC)NC(=O)[C@H](Cc2ccccc2)NC(=O)[C@H]([C@@H](C)O)NC(=O)[C@H]([C@@H](C)O)NC(=O)[C@H](CCC(=O)O)NC(=O)[C@H](CC(C)C)NC(=O)[C@H](Cc2c[nH]cn2)NC(=O)[C@H]([C@@H](C)O)NC(=O)[C@H](CCC(N)=O)NC(=O)CNC(=O)[C@H]2CCCN2C(=O)[C@H](CCC(N)=O)NC(=O)[C@H]([C@@H](C)O)NC(=O)[C@H](C(C)C)NC(=O)[C@H](CCCNC(=N)N)NC1=O [compound 37]
